Assay: MicroPET imaging and organ uptake quantification after tail vein injection in normal nude mice
Type: in vivo, mouse
Description: All animal studies were approved by the University of Southern California Institutional Animal Care and Use Committee. Female athymic nude mice (about 4-6 weeks old, with a body weight of 20-25 g) were obtained from Harlan Laboratories (Livermore, Calif.). MicroPET scans were performed using an Inveon microPET scanner (Siemens Medical Solutions, Malvern, Pa., USA). A normal nude mouse was anesthetized using 2% isoflurane and injected with 1.3-2.5 MBq of [^18F]-ClFMBP via tail vein. At 0.5, 1, and 2 h post injection, static emission scans were acquired for 10 min. Raw PET images were reconstructed using 2D ordered subset expectation maximization (OSEM) algorithms with scatter, random and attenuation correction.
The 2D projection of PET images at 2 h post-injection is shown.
Accumulation of [^18F]-ClFMBP in other mouse organs was minimal.

[1] = microPET quantification, 2 h post-injection, tail vein, normal nude mice

Compound: O=P(O)(O)C([18F])(Cl)P(=O)(O)O [[^18F]-ClFMBP, (chloro[^18F]-fluoromethylene)bisphosphonic acid]
- visibility of joints and bones in microPET images (0.5, 1 and 2 h post-injection, normal nude mice): clearly visible with high contrast to contralateral background
- uptake of radioactivity in the bladder (microPET images, normal nude mice): Predominant uptake
- accumulation in other mouse organs (microPET quantification, 2 h post-injection): minimal
- uptake in bones [1]: 2.72±0.05 % ID/g
- uptake in joints [1]: 2.37±0.08 % ID/g
- uptake in mouse kidneys [1]: 0.16±0.08 % ID/g
- uptake in mouse liver [1]: 0.21±0.04 % ID/g
- route of excretion (suggested by bladder uptake in microPET images): mainly through the renal system

Reference: patent US20200206370A1, “18F-LABELED BISPH[…] PET IMAGING” (University of Southern California, priority 2016, published 2020)
